Measured values: patent US7157092B1, “Acyl pseudodipeptides, preparation method and pharmaceutical compositions containing same” (Om Pharma, priority 1998, dated 2007)
Like-named read-outs stand apart in the source and are kept apart here.

What was measured:
[1] = tested on: PROb syngenic tumoral line; experiment: Treatment of peritoneal carcinoma induced by PROb cells in BDIX rats
UreB 1-569 = experiment: Nasal immunization with urease B subunit of Heliobacter pylori: serum anti-UreB immunoglobulins (ELISA); format: in vivo, BALB/c mice; settings: 4 times weekly, 25 μg OM-294-DP alone
LmCPb antigen [2] = experiment: Primary response to single injection of Leishmania mexicana LmCPb antigen: lymph node cell proliferation (3H-TdR take-up); format: in vivo, CBA mice; settings: single injection LmCPb 2 μg + 50 μg adjuvant
Procedure: (§1) CBA mice were administered through the tail a single injection of LmCPb in a 2 μg dose either in combination or not with 50 μg of OM-294-MP adjuvant. A control group was administered one injection of physiological saline buffer (non immunized subjects). Eleven days later, cells of the inguinal and periaortic lymph nodes (groups of 3 mice each) were cultured and the proliferative response directed to the purified LmCPb antigen, to a preparation of whole amastigotes of Leishmania mexicana and to concanvalin A (ConA) was evaluated by measuring tritiated thymidine take-up (^3H-TdR). γ IFN and IL-4 cytokine production by lymph node lymphocytes rechallenged in vitro with LmCPb antigen of Leishmania mexicana or by amastigotes was equally determined by ELISA (MIF00 γ IFN & M4000 IL-4 kits, R&D Systems Europe Ltd, Abingdon, UK) using a sample of each culture supernatant of lymph node lymphocytes before addition of ^3H-TdR.
(§2) Values reported in the tables stand for the mean value±standard deviation (triplicate) expressed in cpm for ^3H-TdR take-up and the arithmetic mean±standard deviation (triplicate) expressed in pg per ml for cytokine production in supernatant fluids.
(§3) Antigen: LmCPb stock solution is prepared at a concentration of 40 μg/ml in PBS (2×).
(§4) The negative control consists of a PBS solution without antigen.
(§5) Antigen-adjuvant mixture: Adjuvants are maintained for 10 minutes at 37° C. before vortexing for 3 minutes. Then, the antigen (1 volume) and the adjuvant (1 volume) are mixed and vortexed briefly before being incubated for 20 minutes at 37° C., and finally the whole mixture is vortexed again for 3 minutes.

gp63 antigen [3] = format: in vivo, CBA mice; settings: 2 s.c. injections gp63 2 μg with 2×50 μg OM-294-MP or 200 μg BCG
[4] = tested on: mouse bone marrow stem cells; experiment: Bone marrow stem cell proliferation (XTT); format: cell-based, C57/BL6 mice; settings: 7 days incubation, FIG. 1
Procedure: Two six-week old male C57/BL6 mice were killed by CO2 inhalation followed by cervical dislocation. The mice were washed with alcohol, and the skin of the posterior members was entirely removed. The hip, femur and tibia bones were removed by joint disruption. The flesh was grossly removed using a scalpel. The bones were cleaned and the bone ends were cut with scissors. The marrrow was extracted from the bone lumen by injecting three times 1 ml of Dulbecco's Modified Eagle Medium (DH medium) from the extremities which were cut with scissors. The cells were suspended in DH medium and centrifuged at 300×g for 5 minutes. The supernatant fluid was discarded and the stem cells were suspended in DH medium supplemented with 20% foetal calf serum (FCS) The cell concentration was adjusted to 500 000 cells/ml. […]
Proliferation is determined by measuring the oxydation of a chromogenic substrate (XTT) in mitochondria of viable cells.
7 days later, the microtiter plates are centrifuged for 5 minutes at 400×g, and 100 μl of the supernatant fluid are withdrawn and discarded. […] After 8 hour incubation at 37° C. under 8% CO2 in an incubator at 100% RH, the microtiter plates are read with a spectrophotometer at 480 nm against a standard at 690 nm.
The results are expressed as mean values (+standard deviation) by plotting a dose versus response curve. […]

[5] = tested on: predendritic cells (DC-6); experiment: Dendritic cell maturation: FITC-Dextran conjugate incorporation; settings: 0.02% g to 25 μg per ml; FIGS. 4, 5
LmCPb antigen [6] = experiment: Primary response to single injection of LmCPb antigen: in vitro cytokine secretion by lymph node lymphocytes (ELISA); format: in vivo, CBA mice; settings: single injection LmCPb + adjuvant
Procedure: as §1, §2, §3, §4, §5

gp63 antigen [7] = format: in vivo, CBA mice
[8] = 10 i.v. injections of 1 mg/kg from day 13
[9] = 10 i.v. injections of 1 mg/kg from day 13, dissection at D42

SMILES: CCCCCCCCCCCC(=O)O[C@H](CCCCCCCCCCC)CC(=O)NC(CCOP(=O)(O)O)C(=O)NCCCC(COP(=O)(O)O)NC(=O)C[C@H](O)CCCCCCCCCCC (stereo partly drawn) [OM-294-DP, 3-[(R)-3-dodecanoyloxytetradecanoylamino]-4-oxo-5-aza-9-[(R)-3-hydroxytetradecanoylamino]decan-1,10-diol 1, 10-bis(dihydrogenphosphate)]
- Volume ascite, mean ± σ [1, 8]: 8 ± 23 ml/rat
- Volume ascite, range [1, 8]: 0–73 ml/rat
- animals surviving at day 42 following injection of tumor cells [1, 8]: 90%
- Number of rats suffering from carcinoma belonging to class 0 (no nodules visible) [1, 9]: 4
- Number of rats suffering from carcinoma belonging to class 1 [1, 9]: 1
- Number of rats suffering from carcinoma belonging to class 2 [1, 9]: 2
- Number of rats suffering from carcinoma belonging to class 3 [1, 9]: 1
- Number of rats suffering from carcinoma belonging to class 4 [1, 9]: 2
- anti-tumor activity in the peritoneal carcinoma model ([1]; rat, in vivo): remarkable anti-tumor activity
- Effect of product on ascite volume, p (Variance analysis) ([1]; versus NaCl): p < 0.05
- Effect of product on carcinoma classification, p (Kruskall-Wallis test) ([1]; versus NaCl): p < 0.05
- extension of rat survival rate, p (log rank test) ([1]; versus control): < 0.001
- anti-UreB antibodies in serum (UreB 1-569): No anti-UreB antibodies are detected

SMILES: CCCCCCCCCCCC(=O)O[C@H](CCCCCCCCCCC)CC(=O)NC(CCOP(=O)(O)O)C(=O)NCCCC(CO)NC(=O)C[C@H](O)CCCCCCCCCCC (stereo partly drawn) [OM-294-MP, 3-[(R)-3-dodecanoyloxytetradecanoylamino]-4-oxo-5-aza-9-[(R)-3-hydroxytetradecanoylamino]-decane-1,10-diol 1-dihydrogenphosphate]
- 3H-TdR take-up (LmCPb antigen [2]; in vitro: Amastigotes 1.9 × 10^−6/ml): 44 ± 7 cpm × 10^−3/ml
- 3H-TdR take-up (LmCPb antigen [2]; in vitro: Amastigotes 6 × 10^−6/ml): 79 ± 6 cpm × 10^−3/ml
- 3H-TdR take-up (LmCPb antigen [2]; in vitro: Amastigotes 17 × 10^−6/ml): 119 ± 4 cpm × 10^−3/ml
- 3H-TdR take-up (LmCPb antigen [2]; in vitro: Con A 5 μg/ml): 196 ± 10 cpm × 10^−3/ml
- 3H-TdR take-up (LmCPb antigen [2]; in vitro: LmCPb 0.6 μg/ml): 19 ± 4 cpm × 10^−3/ml
- 3H-TdR take-up (LmCPb antigen [2]; in vitro: LmCPb 1.7 μg/ml): 40 ± 4 cpm × 10^−3/ml
- 3H-TdR take-up (LmCPb antigen [2]; in vitro: LmCPb 5 μg/ml): 80 ± 5 cpm × 10^−3/ml
- 3H-TdR take-up (LmCPb antigen [2]; in vitro: LmCPb 15 μg/ml): 140 ± 10 cpm × 10^−3/ml
- 3H-TdR take-up (LmCPb antigen [2]; in vitro: No stimulant): 11 ± 2 cpm × 10^−3/ml
- murine T lymphocyte proliferation, 3H-TdR take-up (gp63 antigen [3]; gp63 in vitro 0 μg/ml): 2.8 ± 0.7 cpm × 10^−3/ml
- murine T lymphocyte proliferation, 3H-TdR take-up (gp63 antigen [3]; gp63 in vitro 0.16 μg/ml): 65 ± 11 cpm × 10^−3/ml
- murine T lymphocyte proliferation, 3H-TdR take-up (gp63 antigen [3]; gp63 in vitro 0.31 μg/ml): 92 ± 11 cpm × 10^−3/ml
- murine T lymphocyte proliferation, 3H-TdR take-up (gp63 antigen [3]; gp63 in vitro 0.62 μg/ml): 93 ± 13 cpm × 10^−3/ml
- murine T lymphocyte proliferation, 3H-TdR take-up (gp63 antigen [3]; gp63 in vitro 1.25 μg/ml): 39 ± 7 cpm × 10^−3/ml
- cell proliferation of mouse bone marrow stem cells [4]: more moderate response than the diphosphorylated product
- differenciation of DC-6 into DC-9 cells (dose vs. response of FITC-Dextran incorporation) [5]: outstanding capacity to induce differenciation of DC-6 into DC-9 cells
- γ IFN production (LmCPb antigen [6]; in vitro: Amastigotes): 320 pg/mL
- IL-4 production (LmCPb antigen [6]; in vitro: Amastigotes 17 × 10^−5/ml): 65 pg/mL
- IL-4 production (LmCPb antigen [6]; in vitro: Con A 5 μg/ml): 360 pg/mL
- γ IFN production (LmCPb antigen [6]; in vitro: Con A 5 μg/ml): >1800 pg/mL
- IL-4 production (LmCPb antigen [6]; in vitro: LmCPb 15 μg/ml): 130 pg/mL
- γ IFN production (LmCPb antigen [6]; in vitro: LmCPb 15 μg/ml): 480 pg/mL
- IL-4 production (LmCPb antigen [6]; in vitro: No challenge): <8 pg/mL
- γ IFN production (LmCPb antigen [6]; in vitro: No stimulant): 25 pg/mL
- IL-4 concentration (gp63 antigen [7]; gp63 in vitro 0): <8 pg/mL
- γ IFN concentration (gp63 antigen [7]; gp63 in vitro 0): <9 pg/mL
- IL-4 concentration (gp63 antigen [7]; gp63 in vitro 0.3): 125 pg/mL
- γ IFN concentration (gp63 antigen [7]; gp63 in vitro 0.3): 135 pg/mL
- IL-4 concentration (gp63 antigen [7]; gp63 in vitro 0.6): 83 pg/mL
- γ IFN concentration (gp63 antigen [7]; gp63 in vitro 0.6): 120 pg/mL
